Test results reported in patent US20030082752A1, “Enzymatic process for producing GDP-alpha-D-mannose, a GDP mannose pyrophosphorylase and phosphomannomutase suitable for that process, the extraction of the said enzymes, and an enzyme test” (priority 1995, published 2003).
Read-outs that look alike come from different tables or passages of the source.

Legend:
[1] = tested on: pyrophosphorylases in Escherichia coli BL21(DE3)pLysSpERJ-1 raw extract; test: NUSSA screening of pyrophosphorylases in E. coli raw extract; assay type: biochemical; conditions: 20 μg/mL raw extract
Method: (§1) The total volume was 200 μL.
2) Example: Use of NUSSA for screening pyrophoshorylases in two different enzyme sources: a) Escherichia coli BL21(DE3)pLysSpERJ-1
(§2) For using the test, the PPIPFK has to be purified. As a simple and easily available enzyme source, potatoes were selected (Solanum tuberosum L.) . The purification was carried out according to the method described by van Schaftingen et al., 1982 in Eur. J. Biochem., Vol. 129, pp. 191-195. The enzyme (PPIPFK) was stored in 25% glycerin at -20° C.
(§3) Escherichia Coli BL21(DE3)pLysSpERJ-1 was cultured and broken up as described above. The resulting raw homogenate was centrifuged at 10,000 rpm for 2 min, and at 20° C., then used in the enzyme test (21.02 mg/mL). The rice was broken up according to Elling, 1993, German Patent DE 4,221,595 Cl, at 10,000 rpm, 10 min, 20° C., and it was used as a raw extract (4.26 mg/mL) in the enzyme screening. The substrates tested were: […]
(§4) a) Nucleoside triphosphate: ATP, CTP, GTP, UTP, dTTP, each at 1 mM in the test with glucose-1-phosphate (2.5 mM) b) Nucleoside triphosphate UTP (1 mM)
(§5) Sugar-1-phosphate, each at 2.5 mM in the test

[2] = target: Salmonella enterica group B (formerly Salmonella typhimurium LT2) GDP-mannose pyrophosphorylase (rfb M, EC 2.7.7.13), recombinant from E. coli BL21(DE3)pLysSpERJ-1 (Salmonella typhimurium, UniProt P26404); test: biochemical
Salmonella enterica group B (formerly Salmonella typhimurium LT2) GDP-mannose pyrophosphorylase (rfb M, EC 2.7.7.13), recombinant from E. coli BL21(DE3)pLysSpERJ-1, sequence (P26404 whole entry): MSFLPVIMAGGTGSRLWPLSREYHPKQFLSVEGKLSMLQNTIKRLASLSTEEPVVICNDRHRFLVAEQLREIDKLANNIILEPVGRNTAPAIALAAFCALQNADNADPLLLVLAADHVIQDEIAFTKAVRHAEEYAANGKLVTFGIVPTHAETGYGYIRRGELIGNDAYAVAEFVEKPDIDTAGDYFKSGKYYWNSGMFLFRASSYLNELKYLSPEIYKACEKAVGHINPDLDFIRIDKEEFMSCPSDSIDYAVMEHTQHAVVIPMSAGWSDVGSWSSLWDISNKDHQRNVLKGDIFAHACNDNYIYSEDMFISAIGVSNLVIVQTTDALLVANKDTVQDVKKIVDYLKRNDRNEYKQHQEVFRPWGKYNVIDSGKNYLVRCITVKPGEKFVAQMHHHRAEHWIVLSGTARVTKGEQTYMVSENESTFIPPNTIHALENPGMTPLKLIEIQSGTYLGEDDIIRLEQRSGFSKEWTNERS
Excerpt: (§7) In the manner described below, it is possible to determine, by the use of the substrates (sugar-1-phosphates or sugar in the case of neuraminic acid) and nucleoside triphosphates any pyrophosphorylase activity which presents an activity in the test mixture of≧0.2 mU/mL.
The enzyme test (Nucleotidyl transferase substrate screening assay ‘NUSSA’) is based on the fact that in the nucleotidyl transferase reaction (EC 2.7-7), pyrophosphate is produced with a pyrophosphate-dependent phosphofructokinase (PPiPFK from plants or bacteria EC 2.7.1.90) with fructose-6-phosphate and in the presence of fructose-2,6-diphosphate to make fructose-1,6-diphosphates. This product is cleaved with an aldolase to form dihydroxyacetone phosphate (DHAP) and glycerin-3-phosphate (GAP). From glycerinaldehyde-3-phosphate, dihydroxyacetone phosphate is produced with the triose phosphate isomerase. Finally, dihydroxyacetone phosphate is reduced with glycerin-3-phosphate dehydrogenase to glycerin-3-phosphate (G-3-P) with NADH. 2 mol of NADH are used per mol of pyrophosphate; this consumption can be monitored by photometry.
3) Influence of GDP-mannose on the synthesis
The concentration of GTP was varied between 0.08mM and 6 mm.
The GDP-mannose was used at 0μM, 50 μM, and 100 μM in the test. […]
(§8) The total volume was 200 μL. The preparations were measured in a Titertek photometer molecular device, Munich, by photometry. […]

[3] = target: T1, GDP-mannose pyrophosphorylase (Salmonella typhimurium, UniProt P26404); assay type: biochemical, Salmonella enterica, group B; conditions: for kmax value: GTP varied at 0.08 mM M-1-P, M-1-P varied at 2 mM GTP
T1 construct: made in house; host or cells: Escherichia coli BL21(DE3)pLysS with pERJ-1 (pT7-6/rfbM)
T1 sequence (P26404 whole entry): as above
Method: (§6) GTP was used at concentrations of 0.01-10 mM (FIG. 7).
b) Nucleoside triphosphate: GTP
Sugar-1-phosphates: Glucose-1-P, N-acetylglucosamine-1-P-, glucosamine-1-P, galactose-1-P, galactosamine-1-P, N-acetylgalactosamine-1-P, glucuronic acid-1-P, galacturonic acid-1-P, xylose-1-P, mannose-1-P
as §1

[4] = target: Salmonella enterica group B (formerly Salmonella typhimurium LT2) GDP-mannose pyrophosphorylase (rfb M, EC 2.7.7.13), recombinant from E. coli BL21(DE3)pLysSpER (Salmonella typhimurium, UniProt P26404)
Salmonella enterica group B (formerly Salmonella typhimurium LT2) GDP-mannose pyrophosphorylase (rfb M, EC 2.7.7.13), recombinant from E. coli BL21(DE3)pLysSpER, sequence (P26404 whole entry): as above
Method: as §6, §1

[5] = tested on: pyrophosphorylases in rice (Oryza sativa L.) raw extract; test: NUSSA screening of pyrophosphorylases in rice raw extract; assay type: biochemical
Method: as §1
2) Example: Use of NUSSA for screening pyrophoshorylases in two different enzyme sources: b) Rice (Oryza sativa L.)
as §2, §3, §4, §5

[6] = tested on: Nc1nc2c(ncn2[C@@H]2O[C@H](COP(=O)(O)OP(=O)(O)OP(=O)(O)O)[C@@H](O)[C@H]2O)c(=O)[nH]1; test: purified protein, by the assay type; conditions: other: GTP 0.01-10 mM, mannose-1-phosphate constant 0.08 mM, NUSSA, Tris-HCl pH 8
Excerpt: as §7
The enzyme test (Nucleotidyl transferase substrate screening assay ‘NUSSA’) is based on the fact that in the nucleotidyl transferase reaction (EC 2.7-7), pyrophosphate is produced with a pyrophosphate-dependent phosphofructokinase (PPiPFK from plants or bacteria EC 2.7.1.90) with fructose-6-phosphate and in the presence of fructose-2,6-diphosphate to make fructose-1,6-diphosphates. This product is cleaved with an aldolase to form dihydroxyacetone phosphate (DHAP) and glycerin-3-phosphate (GAP). From glycerinaldehyde-3-phosphate, dihydroxyacetone phosphate is produced with the triose phosphate isomerase. Finally, dihydroxyacetone phosphate is reduced with glycerin-3-phosphate dehydrogenase to glycerin-3-phosphate (G-3-P) with NADH. 2 mol of NADH are used per mol of pyrophosphate; this consumption can be monitored by photometry. [drawing 3]
GTP was used at concentrations of 0.01-10 mM (FIG. 7). […]
as §8

[7] = tested on: O=P(O)(O)O[C@H]1O[C@H](CO)[C@@H](O)[C@H](O)[C@@H]1O; test: purified protein, by the assay type; conditions: other: mannose-1-phosphate 0.002-0.6 mM, GTP constant 2 mM, NUSSA, Tris-HCl pH 8
[8] = literature, cited from earlier work
[9] = NTP 1 mM with α-D-glucose-1-phosphate 2.5 mM
[10] = α-D-sugar-1-phosphate 2.5 mM with GTP 1 mM
[11] = NTP 1 mM with α-D-glucose-1-phosphate 2.5 mM, 1.06 μg/mL-0.14 mg/mL raw extract
[12] = α-D-sugar-1-phosphate 2.5 mM with UTP 1 mM

## Nc1ncnc2c1ncn2[C@@H]1O[C@H](COP(=O)(O)OP(=O)(O)OP(=O)(O)O)[C@@H](O)[C@H]1O [ATP]
[1]; [9]
  Specific activity of pyrophosphorylases, E. coli: 2.76 mU/mg

## Nc1ccn([C@@H]2O[C@H](COP(=O)(O)OP(=O)(O)OP(=O)(O)O)[C@@H](O)[C@H]2O)c(=O)n1 [CTP]
[1]; [9]
  Specific activity of pyrophosphorylases, E. coli: 0.75 mU/mg

## Nc1nc2c(ncn2[C@@H]2O[C@H](COP(=O)(O)OP(=O)(O)O[C@H]3O[C@H](CO)[C@@H](O)[C@H](O)[C@@H]3O)[C@@H](O)[C@H]2O)c(=O)[nH]1 [GDP-mannose, GDP-alpha-D-mannose]
[2]
  Ki: 14.9 µM
[2]; Ki value, noncompetitive inhibition with respect to M-1-P, mannose-1-phosphate 0.003-0.3 mM, GTP constant 2 mM, 5.67 μg/mL enzyme
  Ki: 118 µM
[3]; GTP constant 2 mM, M-1-P 0.003-0.3 mM
  type of inhibition with respect to M-1-P: noncompetitive inhibition
[3]; M-1-P constant 0.08 mM, GTP 0.08-6 mM
  type of inhibition with respect to GTP: competitive inhibition

## Nc1nc2c(ncn2[C@@H]2O[C@H](COP(=O)(O)OP(=O)(O)OP(=O)(O)O)[C@@H](O)[C@H]2O)c(=O)[nH]1 [GTP]
[4]; pH 8
  kmax value (GTP): 2.4 U/mg
[3]
  kmax value: 2.4 U/mg

## O=P(O)(O)O[C@H]1O[C@H](CO)[C@@H](O)[C@H](O)[C@@H]1O [M-1-P, mannose-1-phosphate]
[1]; [10]
  Specific activity of pyrophosphorylases, E. coli: 3.41 mU/mg
[5]; [10]
  Specific activity of pyrophosphorylases, rice: 1.51 mU/mg
[4]; vmax, mannose-1-phosphate 0.002-0.6 mM, GTP constant 2 mM, NUSSA, Tris-HCl pH 8
  kmax value (M-1-P): 1.8 U/mg
[3]
  kmax value: 1.8 U/mg

## O=c1ccn([C@@H]2O[C@H](COP(=O)(O)OP(=O)(O)OP(=O)(O)O)[C@@H](O)[C@H]2O)c(=O)[nH]1 [UTP]
[1]; [9]
  Specific activity of pyrophosphorylases, E. coli: 214.10 mU/mg
[5]; [11]
  Specific activity of pyrophosphorylases, rice: 982.40 mU/mg

## Cc1cn([C@H]2C[C@H](O)[C@@H](COP(=O)(O)OP(=O)(O)OP(=O)(O)O)O2)c(=O)[nH]c1=O [dTTP]
[1]; [9]
  Specific activity of pyrophosphorylases, E. coli: 10.32 mU/mg
[5]; [11]
  Specific activity of pyrophosphorylases, rice: 5.98 mU/mg

## CC(=O)N[C@H]1[C@@H](OP(=O)(O)O)O[C@H](CO)[C@H](O)[C@@H]1O [α-D-GalNAc-1-P, N-acetylgalactosamine-1-P]
[5]; [12]
  Specific activity of pyrophosphorylases, rice: 0.18 mU/mg

## O=C(O)[C@H]1O[C@H](OP(=O)(O)O)[C@H](O)[C@@H](O)[C@H]1O [α-D-Galacrurons{overscore (a)}ure-1-P, α-D-Galacturonic acid-1-P]
[1]; [12]
  Specific activity of pyrophosphorylases, E. coli: 3.66 mU/mg
[5]; [12]
  Specific activity of pyrophosphorylases, rice: 2.94 mU/mg

## N[C@H]1[C@@H](OP(=O)(O)O)O[C@H](CO)[C@H](O)[C@@H]1O [α-D-Galactosamin-1-P]
[5]; [12]
  Specific activity of pyrophosphorylases, rice: 0.25 mU/mg

## O=P(O)(O)O[C@H]1O[C@H](CO)[C@H](O)[C@H](O)[C@H]1O [α-D-Galactose-1-P]
[1]; [12]
  Specific activity of pyrophosphorylases, E. coli: 1 mU/mg
[5]; [12]
  Specific activity of pyrophosphorylases, rice: 10.41 mU/mg

## CC(=O)N[C@H]1[C@@H](OP(=O)(O)O)O[C@H](CO)[C@@H](O)[C@@H]1O [α-D-GlcNAc-1, N-acetylglucosamine-1-P-]
[1]; [12]
  Specific activity of pyrophosphorylases, E. coli: 2.02 mU/mg
[5]; [12]
  Specific activity of pyrophosphorylases, rice: 0.27 mU/mg

## N[C@H]1[C@H](OP(=O)(O)O)O[C@H](CO)[C@@H](O)[C@@H]1O [α-D-Glucosamin-1-P, α-D-Glucosamine-1-P]
[1]; [12]
  Specific activity of pyrophosphorylases, E. coli: 2.75 mU/mg

## O=C(O)[C@H]1O[C@H](OP(=O)(O)O)[C@H](O)[C@@H](O)[C@@H]1O [α-D-Glucurons{overscore (a)}ure-1-P, α-D-Glucuronic acid-1-P]
[1]; [12]
  Specific activity of pyrophosphorylases, E. coli: 4.72 mU/mg
[5]; [12]
  Specific activity of pyrophosphorylases, rice: 14.27 mU/mg

## O=P(O)(O)O[C@H]1OC[C@@H](O)[C@H](O)[C@H]1O [α-D-Xylose-1-P]
[5]; [12]
  Specific activity of pyrophosphorylases, rice: 0.42 mU/mg

## Salmonella enterica group B (formerly Salmonella typhimurium LT2) GDP-mannose pyrophosphorylase (rfb M, EC 2.7.7.13), recombinant from E. coli BL21(DE3)pLysSpERJ-1 (Salmonella enterica subsp. enterica serovar Typhimurium str. LT2)
[6]
  Km: 0.2 mM mM
[7]
  Km: 0.01 mm mm

B1: Pseudomonas aeruginosa (Shinabarger et al 1991): Bifunctional GDP-Man-PP from Pseudomonas aeruginosa with phosphomannose isomerase and pyrophosphorylase activity (protein, UniProt P07874 1-481, looked up)
Alginate biosynthesis protein …: MIPVILSGGSGSRLWPLSRKQYPKQFLALTGDDTLFQQTIKRLAFDGMQAPLLVCNKEHRFIVQEQLEAQNLASQAILLEPFGRNTAPAVAIAAMKLVAEGRDELLLILPADHVIEDQRAFQQALALATNAAEKGEMVLFGIPASRPETGYGYIRASADAQLPEGVSRVQSFVEKPDEARAREFVAAGGYYWNSGMFLFRASRYLEELKKHDADIYDTCLLALERSQHDGDLVNIDAATFECCPDNSIDYAVMEKTSRACVVPLSAGWNDVGSWSSIWDVHAKDANGNVTKGDVLVHDSHNCLVHGNGKLVSVIGLEDIVVVETKDAMMIAHKDRVQDVKHVVKDLDAQGRSETQNHCEVYRPWGSYDSVDMGGRFQVKHITVKPGARLSLQMHHHRAEHWIVVSGTAQVTCDDKTFLLTENQSTYIPIASVHRLANPGKIPLEIIEVQSGSYLGEDDIERLEDVYGRTAEPALQVVAGSR
[8]; after purification
  Specific activity after purification: 6.12 U/mg Protein
[8]; raw extract
  Specific activities Raw extract: 0.397 U/mg Protein
